Measured values reported in patent US7049331B2, “1,2,4-thiadiazole derivatives as melanocortin receptor modulators” (Ortho-McNeil Pharmaceutical, Inc., priority 2001, dated 2006).
Like-named read-outs stand apart in the source and are kept apart here.

Key:
[1] = target: T1, melanocortin MC-4 receptor (Homo sapiens, UniProt P32245); assay: MC-4 receptor binding (Filtration); details: Filtration; for IC50: read-out: IC50 MC-4 (μM) (Filtration)
T1 construct: purchased Receptor Biology Inc
Procedure: The procedures described above for the melanocortin MC-4 receptor were repeated for the melanocortin MC-3 receptor. Following the procedures described, representative compounds of the present invention were tested for binding in the MC-4 and/or MC-3 assay, as listed in Table 4.

[2] = target: T1, melanocortin MC-4 receptor; assay: Melanocortin MC-4 Receptor Binding Assay (SPA)
Procedure: Melanocortin MC-4 Receptor Binding Assay Melanocortin [MC-4]-membrane [purchased from Receptor Biology Inc] was coupled to wheat germ agglutinin coated polyvinyl toluene-Scintillation Proximity Assay beads [purchased from Amersham Pharmacia Inc.] for 30 min at 25° C. Into each well of a 96-well Opti plate [purchased from Packard, Calif.], 2.5 μg of membrane and 0.25 mg of beads were mixed in a volume of 100 μL media. […] Test compounds (1.5 μL) at 1 mM in 30% DMSO-50 mM HEPES, pH 7.4 buffer was added to separate wells on the plate. Radioactive ligand ^125I-NDP-melanocyte stimulating hormone [NEN, 2000Ci/mmol] was added to each well (48.5 μL per well, 40 pM final concentration). The plate was then sealed and let stand for 16 hr at 25° C. NDP-Melanocyte stimulating hormone peptide and α-melanocyte stimulating hormone peptide [purchased from Palomar Research Inc, 1 μM] were used as reference inhibitor compounds to define non-specific binding (N). Total binding (T) was defined using 30% DMSO-50 mM HEPES, pH 7.4 buffer. Bound radioactivity for each well (Y), measured at counts per minute (cpm) was measured in a TopCount [Packard, Calif.]. Percent inhibition was calculated as: […] The procedures described above for the melanocortin MC-4 receptor were repeated for the melanocortin MC-3 receptor. Following the procedures described, representative compounds of the present invention were tested for binding in the MC-4 and/or MC-3 assay, as listed in Table 4.

Food-Deprived Rats = assay: Rodent Feeding: Food Intake in Food-Deprived Rats (MC-4); type: in vivo, rat; details: for change in vivo at 10 mg/kg / change in vivo at 30 mg/kg: Rattus norvegicus; for change in vivo at 30 mg/kg: po
Excerpt: Rodent Feeding: Food Intake in Food-Deprived Rats (MC-4)
Male Long-Evans rats (180–200 grams) were housed individually and maintained on a once-a-day feeding schedule (i.e.10 a.m. until 4 p.m.) for five days following quarantine to allow the animals to acclimate to feeding on powdered chow (#5002 PMI Certified Rodent Meal) during the allotted time. The chow was made available in an open jar, anchored in the cage by a wire, with a metal follower covering the food to minimize spillage. Water was available ad-libitum.
Animals were fasted for 18 hours prior to testing. At the end of the fasting period, animals were administered either a test compound or vehicle. Vehicle and test compound were administered either orally (5 mL/kg) 60 minutes prior to the experiment, subcutaneously (1 mL/kg) 30 minutes prior to the experiment, or intraperitoneally (1 mL/kg) 30 minutes prior to the experiment. Test compounds were administered orally as a suspension in aqueous 0.5% methylcellulose-0.4% Tween 80, or intraperitoneally as a solution or suspension in PEG 200; compound concentrations typically ranged from 1 mg/kg to 100 mg/kg, preferably from 10–30 mg/kg. Food intake was measured at 2, 4, and 6 hours after administration by weighing the special jar containing the food before the experiment and at the specified times. Upon completion of the experiment, all animals were given a one-week washout period before re-testing.
Following the procedure described above, select compounds of the present invention were tested to measure the effect on food intake in fasted rats, as listed in Table 5 and 6.

Hippocampal Cells = assay: Neurite Cell Outgrowth Assay, hippocampal cells; type: cell-based; details: Rattus norvegicus; 50 nM; percent change over the vehicle response; NA = no change/not active
Excerpt: (§1) Dissociated hippocampal and cortical cell cultures were established from embryonic day 18 rat fetuses as described by Mattson, M. P., Barger, S. W., Begley, J, and Mark, R. J., Methods Cell Biol., 1994, 46:[…]. Briefly, fetuses were removed via cesarean section from pregnant moms (Sprague-Dawley) and anesthetized with halothane according to the AVMA Panel on Euthanasia. Pups were decapitated and the brains were removed and placed in HEPES-buffered Hank's Balanced Salt solution (HBSS; Gibco). The hippocampi and cortices were dissected out and pooled according to tissue-type. Tissue was trypsinized for 15 min (1 mg/ml trypsin-HBSS; Worthington), rinsed with fresh HBSS, incubated in trypsin inhibitor (1 mg/ml; Sigma) for 5 min, rinsed again with fresh HBSS and then triturated in 1 ml fresh HBSS with a fire-polished glass pipette. Dissociated cells were seeded at 30,000 cells/well onto poly-D-lysine coated 96-well plates (Collaborative BioScience). Each well contained 100 μl of Eagle's Minimal Essential Media (MEM; Gibco) supplemented with 26 mM NaHCO3 (Sigma), 56 mM glucose (Sigma), 15 mM KCl (Sigma), 1 mM sodium pyruvate (Sigma), 1.1 mM L-glutamine (Sigma), 10% (v/v) heat-inactivated fetal bovine serum (Hyclone), and 0.001% gentamicin sulfate (Sigma) (pH 7.4). Cells were allowed to attach for 24 h in a humidified 37° C. 5% CO2 incubator before experimental treatment. The culture media was aspirated and exchanged with fresh media every 3 days.
(§2) Twenty-four hours after plating, cultures were treated with vehicle (PBS+0.1% BSA), alpha-melanocyte stimulating hormone (α-MSH) or test compound (diluted in DPBS). Each treatment condition was run in quadruplicate. On the third day in culture, the media was aspirated off and replaced with fresh media and test compound. At one week in culture, the cells were fixed with 10% phosphate-buffered formalin for 15 min, then rinsed with DPBS (Sigma) and placed in blocking serum for 30 min (horse serum; 1:50 dilution in DPBS; Vector Labs). The cultures were rinsed again with DPBS and then incubated in primary antibody for 2 hr (microtubule-associated protein-2 (MAP-2) is a selective marker for dendritic processes; anti-mouse monoclonal (Chemicon); 1:1000 dilution of MAP-2 in antibody diluent (Zymed)). Negative control wells were incubated in antibody diluent alone. Background signal was determined by blank wells (cell-free) incubated with or without antibody. Cultures were rinsed again with DPBS and then placed in fluorescein for 1 hr (FITC; anti-mouse IgG; rat adsorbed; 1:50 dilution in DPBS; Vector Labs). Cultures were rinsed a final time with DPBS and the plates were then read on a Cytofluor 4000 fluorescence plate reader. Neurite outgrowth was expressed as percent change from control (vehicle).
(§3) The data are expressed as percent change over the vehicle response. All compounds were screened at 50 nM. The abbreviation NA indicates no change/not active; the abbreviation ND indicates a compound not tested/response not determined.

Cortical Cells = assay: Neurite Cell Outgrowth Assay, cortical cells; type: cell-based; details: Rattus norvegicus; 50 nM; percent change over the vehicle response; NA = no change/not active
Excerpt: as §1, §2, §3

human sebocytes = assay: Visual observation of lipid granule formation in sebocytes; type: cell-based
Procedure: Semiconfluent cultures of 3T3 mouse fibroblasts (Swiss Albino mouse, ATCC CCL-92) were treated with mitomycin C (4 μg/ml) for 3 hours, trypsinized and seeded at a density of 2.5×10^5/9.5 cm^2 tissue culture plate in Dulbeccos Minimal Essential Medium (DMEM) containing 10% Colorado Calf Serum, PNC (100U/ml), STM (100 μg/ml), L glutamine (0.3 mg/ml), sodium pyruvate (1 mM) and nonessential amino acids (100 μM). The cells were incubated at 37° C. for 24 hours prior to their use as a feeder layer for sebocytes.
Human sebocytes were isolated from Dermatome shavings of postoperative pieces of human skin at 0.4–0.8 mm depths (this part of the skin was previously shown to be enriched in sebaceous glands). Shavings so obtained were treated with 1% Dispase in Iscoves medium containing 10% serum for 20 min at 37° C. The tissue was then placed in 0.3% trypsin/1% EDTA in Phosphate Buffered Saline (PBS) for 10 minutes at 37° C. Following this incubation the cells were gently scraped from the tissue in Growth medium (GM) containing DMEM/F12 media mixture (3:1), supplemented with 8% heat inactivated FBS, 2% heat inactivated human serum (HS), 1 mM sodium pyruvate, epidermal growth factor (10 ng/ml), insulin (10 μg/ml), hydrocortisone (0.4 μg/ml) and +/−cholera toxin (100 μg/ml), L-glutamine and antibiotics. Cells so obtained were filtered through nylon mesh ([…]), centrifuged at 750 RPM, re-suspended in GM and counted.
Resultant cells from the above isolation procedure were plated on the 3T3 feeder layers at 2×10^5/9.5 cm^2 in growth medium and maintained at 37° C. and 5% CO2 for 3 days (Phase I). Following the initial growth period they were transferred to a transition medium (TM) that consisted of DMEM/F12 media supplemented with 1 mM sodium pyruvate, insulin ([…]), transferrin ([…]) and selenium (5.5 μg/ml) (ITS), 2% heat inactivated FBS and 2% heat inactivated human serum as well as +/−cholera toxin (ch.t.) (100 μg/ml), L-glutamine and antibiotics (Phase II). Three days later the cells were changed to differentiation medium (DM), DMEM/F12 supplemented with ITS, 3,3′,5-triido-L-thyronine sodium (3 nM), 1%(v/v) trace element mix and the choice of differentiation agent i.e. bovine pituitary extract (10 μg/ml). This medium was changed every 3 days (Phase III).
Hormones, mixture of hormones i.e. bovine pituitary extract or compounds to be tested were added to the culture at the beginning of phase III. Two criteria were used to evaluate the effect of these materials on sebaceous cultures: 1) visual observations and 2) evaluation of sebaceous lipid accumulation and synthesis. The evaluation of lipid accumulation completed using the Nile red method. This method relies on visualization of neutral lipids by Nile red and quantitation by reading of fluorescence at 535 nm excitation, 580 nm emission using a plate reader. The lipid synthesis was evaluated by radioactive labeling using ^14C acetate and quantified by Bio Rad Phosphoimager (Molecular Imager, FX) using 4.1 Software.
Quantitation of accumulation/inhibition of neutral lipids in sebocytes was accomplished by Nile red binding assay. Briefly, following exposure of sebocytes to test compounds, the cells were allowed to interact with 1 μM Nile red in Hanks buffered saline solution containing DMSO and Pluronic F127. After 4 hours of incubation, washing and incubation overnight, the fluorescence was read at 535 excitation and 580 emission using a fluorescence plate reader.
Following the procedure described above, select compounds of the present invention were tested for visual and Nile red evaluation of lipid accumulation, with results as listed in Table 9.
Following the procedure described above, select compounds of the present invention were tested for their inhibitory effect on differentiation of human sebocytes. […]

MC5-R = MC5-R (Homo sapiens, UniProt P33032); assay: MC5-R binding
Sequence of MC5-R (P33032 whole entry): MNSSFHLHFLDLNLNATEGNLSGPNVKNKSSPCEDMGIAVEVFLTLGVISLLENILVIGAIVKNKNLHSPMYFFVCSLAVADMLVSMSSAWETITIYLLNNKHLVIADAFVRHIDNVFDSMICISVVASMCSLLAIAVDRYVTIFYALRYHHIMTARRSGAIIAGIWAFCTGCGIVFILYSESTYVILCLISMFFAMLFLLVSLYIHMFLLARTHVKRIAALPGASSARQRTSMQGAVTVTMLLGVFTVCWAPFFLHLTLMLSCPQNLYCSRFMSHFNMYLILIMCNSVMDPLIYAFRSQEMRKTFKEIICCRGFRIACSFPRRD

T1 sequence (P32245 whole entry): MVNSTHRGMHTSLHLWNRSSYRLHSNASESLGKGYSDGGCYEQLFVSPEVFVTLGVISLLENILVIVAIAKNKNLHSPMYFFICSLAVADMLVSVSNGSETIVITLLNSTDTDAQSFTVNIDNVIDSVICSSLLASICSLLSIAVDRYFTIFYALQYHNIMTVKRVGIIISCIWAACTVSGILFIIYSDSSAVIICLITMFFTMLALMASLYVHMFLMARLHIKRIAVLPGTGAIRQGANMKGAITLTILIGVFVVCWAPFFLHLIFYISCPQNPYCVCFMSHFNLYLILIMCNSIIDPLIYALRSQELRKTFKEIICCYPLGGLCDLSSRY

COc1ccc(Nc2nc(-c3ccccc3)[n+](-c3ccc(C)cc3)s2)cc1 [Compound 1]
IC50 [1]: 1.1 µM | IC50 [2]: 174 nM | change in vivo at 10 mg/kg (Food-Deprived Rats; ip, 2 h, ip, read-out: Change in Food Intake 0–2 hrs (%)): -11.6% | change in vivo at 10 mg/kg (Food-Deprived Rats; ip, 6 h, ip, read-out: Change in Food Intake 2–6 hrs (%)): -37% | change in vivo at 30 mg/kg (Food-Deprived Rats; 2 h, read-out: Change in Food Intake 0–2 hrs (%)): -21.2% | change in vivo at 30 mg/kg (Food-Deprived Rats; 6 h, read-out: Change in Food Intake 2–6 hrs (%)): -6.7% | Food Intake 2–6 hrs (Food-Deprived Rats; fasted rats, 10μ, ip): 8.43 g | Food Intake 0–2 hrs (Food-Deprived Rats; fasted rats, ip): 7.29 g | activation at 0.05 µM (Hippocampal Cells): 6%

Cc1ccc(Nc2nc(-c3ccccc3)[n+](-c3ccc(Cl)cc3)s2)cc1 [Compound 18]
IC50 [1]: 6 µM | IC50 [2]: 463 nM | activation at 0.05 µM (Hippocampal Cells): 17% | activation at 0.05 µM (Cortical Cells): 17%

COc1ccc(/N=c2\nc(-c3ccccc3)n(-c3ccc(C)cc3)s2)cc1 [Compound 83]
IC50 [1]: 1.9 µM | IC50 [2]: 833 nM | activation at 0.05 µM (Hippocampal Cells): 11% | activation at 0.05 µM (Cortical Cells): 9%

COc1ccccc1Nc1nc(-c2ccccc2)[n+](-c2ccc(Cl)cc2)s1 [Compound 17]
IC50 [1]: 7.7 µM | IC50 [2]: 351 nM | activation at 0.05 µM (Hippocampal Cells): 8% | activation at 0.05 µM (Cortical Cells): 17%

Cc1ccccc1-[n+]1sc(Nc2ccccc2Cl)nc1-c1ccccc1 [Compound 14]
IC50 [1]: 5.6 µM | IC50 [2]: 234 nM | activation at 0.05 µM (Hippocampal Cells): 30% | activation at 0.05 µM (Cortical Cells): 19%

COc1ccccc1Nc1nc(-c2ccccc2)[n+](-c2ccccc2C)s1 [Compound 10]
IC50 [1]: 2.3 µM | IC50 [2]: 130 nM | activation at 0.05 µM (Hippocampal Cells): 7% | activation at 0.05 µM (Cortical Cells): 11%

COc1ccccc1Nc1nc(-c2ccc(C)cc2)[n+](-c2ccccc2OC)s1 [Compound 67]
IC50 [2]: 130 nM | Visual* 0.4 μM (inhibition of lipid granule formation) (human sebocytes; 0.4 μM): ++ (++ =50%) | Visual* 0.8 μM (inhibition of lipid granule formation) (human sebocytes; 0.8 μM): +++ (+++ = 75%) | IC50 (MC5-R): 246 nM

Cc1ccccc1Nc1nc(-c2ccccc2)[n+](-c2ccccc2C)s1 [Compound 12]
IC50 MC-4 (μM) (Filtration) [1]: insoluble | IC50 MC-4 (nM) (SPA) [2]: insoluble | activation at 0.05 µM (Hippocampal Cells): 28% | activation at 0.05 µM (Cortical Cells): 20%
